Measurements published in PMC5846726, “Characterization of the Mel1c melatoninergic receptor in platypus (Ornithorhynchus anatinus)” (PLoS ONE, 2018).
Where two headings read alike, the source gives them in different places.

What was measured:
hMT1 = hMT1 (Homo sapiens, UniProt P48039); experiment: 2-[125I]-iodomelatonin competition binding, human MT1; parameters: hMT1: unit not given here
Description: (§1) This approach has been described very often by our laboratory and others. […] The results were expressed as Ki, taking into account the concentration of radioligand used in each experiment. […] The reaction was stopped by rapid filtration through GF/B Unifilters, followed by three successive washes with ice-cold buffer. Data were analyzed by using the program PRISM (GraphPad Software Inc., San Diego, CA). For saturation assays, the density of binding sites (Bmax) and the dissociation constant of the radioligand (KD) were calculated according to the Scatchard method. […] A similar protocol was used when the binding was performed on whole cells, as described by Legros et al.. As per Plos One policy, all the raw data–listings from radioactivity counter are attached as raw files (Supplementary Tables A to M in S1 Data).

hMT2 = target: T1, hMT2 (Homo sapiens, UniProt P49286); experiment: 2-[125I]-iodomelatonin competition binding, human MT2
T1 sequence (P49286 1-362): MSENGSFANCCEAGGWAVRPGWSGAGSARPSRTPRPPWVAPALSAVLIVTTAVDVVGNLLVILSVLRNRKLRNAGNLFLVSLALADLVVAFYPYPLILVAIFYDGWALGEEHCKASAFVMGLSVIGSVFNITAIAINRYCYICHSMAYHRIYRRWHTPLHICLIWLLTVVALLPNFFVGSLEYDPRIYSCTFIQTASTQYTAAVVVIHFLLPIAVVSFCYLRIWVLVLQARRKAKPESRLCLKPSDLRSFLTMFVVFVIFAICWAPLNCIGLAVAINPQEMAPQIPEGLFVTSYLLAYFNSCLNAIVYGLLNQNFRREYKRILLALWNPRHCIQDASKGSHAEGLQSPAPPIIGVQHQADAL
Description: as §1

Platypus Mel1C [1] = target: T2, Platypus Mel1C (Ornithorhynchus anatinus, UniProt A0A2P1K6N2); experiment: 2-[125I]-iodomelatonin competition binding, membranes from stably transfected CHO cells, platypus Mel1c; conditions: membranes from stably transfected CHO cells, radioligand 2-[125I]-iodomelatonin; for Ki: read-out: Platypus Mel1C (converted)
T2 sequence (A0A2P1K6N2 1-349): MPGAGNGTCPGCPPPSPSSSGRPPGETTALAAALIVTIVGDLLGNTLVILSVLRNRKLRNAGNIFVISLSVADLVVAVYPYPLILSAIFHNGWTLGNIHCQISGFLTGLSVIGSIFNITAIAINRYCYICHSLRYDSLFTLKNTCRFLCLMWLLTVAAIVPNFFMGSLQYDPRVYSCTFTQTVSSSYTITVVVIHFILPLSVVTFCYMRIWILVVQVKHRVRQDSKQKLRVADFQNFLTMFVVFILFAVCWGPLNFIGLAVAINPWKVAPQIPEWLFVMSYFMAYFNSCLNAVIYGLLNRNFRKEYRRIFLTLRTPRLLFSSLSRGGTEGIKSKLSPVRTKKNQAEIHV
Description: (§2) CHO-Flp-In cells (Thermo Fisher Scientific, Waltham, USA) were cultivated in the presence of zeocin (0.1 mg/ml). The cells were cotransfected with either platypus (cloned sequence that will be submitted to GenBank) Mel1c/pcDNA5-FRT (platypus Mel1c) or X. laevis (NM 001087919.1) Mel1c/pcDNA5-FRT (clawed frog Mel1c) and Flp recombinase expression pOG44 plasmid using PEIpro (Invitrogen, Carlsbad, CA). CHO cells stably expressing platypus Mel1c or clawed frog Mel1c were selected using hygromycin (0.6 mg/ml). CHO-Flp-In-platypus Mel1c cells were grown in HAM F12 with 2 mM glutamine and supplemented with 10% fetal calf serum. Cells were selected using antibiotic pressure (hygromycin) for 72 h. […] After confirmation of the presence of the transgene, the cells were amplified up to 2 x 10^9 cells. This material was used to prepare the cell membranes used in further pharmacological experiments.
(§3) This standard procedure was described in a previous experiment with CHO cells expressing the sheep MT2 receptor [23]. […] The resulting pellet was suspended in 5 mM Tris/HCl (pH 7.4) containing 2 mM EDTA and homogenized using a Kinematica polytron. The homogenate was then centrifuged (20,000g, 30 min, 4°C) and the resulting pellet suspended in 75 mM Tris/HCl (pH 7.4) containing 2 mM EDTA and 12.5 mM MgCl2. The protein content was determined according to the method of Lowry et al. using the Bio-Rad kit (Bio-Rad SA, Ivry-sur-Seine, France). Aliquots of membrane preparations were stored in binding buffer (50 mM Tris/HCl, pH 7.4 containing 5 mM MgCl2 and 1 mM EDTA) at –80°C until use.
as §1

Xenopus Mel1C = target: T3, Xenopus Mel1C (Xenopus laevis, UniProt P49219); experiment: 2-[125I]-iodomelatonin competition binding, membranes from stably transfected CHO cells, Xenopus Mel1c; conditions: radioligand 2-[125I]-iodomelatonin
T3 construct: expressed in transfected cells
T3 sequence (P49219 1-420): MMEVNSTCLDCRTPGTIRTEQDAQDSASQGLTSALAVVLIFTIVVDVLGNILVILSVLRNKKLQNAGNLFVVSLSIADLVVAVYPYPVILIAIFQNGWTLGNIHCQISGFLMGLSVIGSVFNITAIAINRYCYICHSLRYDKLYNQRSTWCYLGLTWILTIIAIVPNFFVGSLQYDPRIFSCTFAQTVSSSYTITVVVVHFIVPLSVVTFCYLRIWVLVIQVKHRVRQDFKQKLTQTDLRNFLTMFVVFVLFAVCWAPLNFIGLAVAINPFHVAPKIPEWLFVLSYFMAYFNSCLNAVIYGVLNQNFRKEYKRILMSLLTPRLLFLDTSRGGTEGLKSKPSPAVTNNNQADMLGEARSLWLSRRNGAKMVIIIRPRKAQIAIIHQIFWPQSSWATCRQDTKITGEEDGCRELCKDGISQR
Description: as §2, §3, §1

X. laevis Mel1c receptor = target: T4, X. laevis Mel1c receptor (Xenopus laevis, UniProt P49219); experiment: 2-[125I]-iodomelatonin competition binding, transiently transfected COS7 cells, Xenopus Mel1c; conditions: COS7 cells transiently transfected with Mel1c gene, radioligand 2-[125I]-iodomelatonin, two transfections, triplicate
T4 construct: expressed in transfected cells; host or cells: COS7 (transient nucleofection, pCIneo vector)
T4 sequence (P49219 1-354 isoform P49219-2): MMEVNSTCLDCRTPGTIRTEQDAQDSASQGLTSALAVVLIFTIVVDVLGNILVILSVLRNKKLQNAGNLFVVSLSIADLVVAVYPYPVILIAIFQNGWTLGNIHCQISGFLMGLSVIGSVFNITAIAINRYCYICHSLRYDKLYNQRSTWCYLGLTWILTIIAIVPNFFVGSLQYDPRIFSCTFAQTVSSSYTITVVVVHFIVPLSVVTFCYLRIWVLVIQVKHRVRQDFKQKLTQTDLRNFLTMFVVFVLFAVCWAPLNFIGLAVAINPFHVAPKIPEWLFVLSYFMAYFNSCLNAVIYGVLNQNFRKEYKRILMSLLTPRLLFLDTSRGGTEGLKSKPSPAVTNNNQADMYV
Description: (§4) COS7 cells obtained from the American Type Culture Collection were maintained in DMEM GlutaMAX (Thermo Fisher Scientific, Waltham, USA) supplemented with 10% (v/v) fetal calf serum. Nucleofection of COS7 cells was performed according to the manufacturer's instructions using the Nucleofector machine (Amaxa, Cologne, Germany). Adherent COS7 cells were washed in phosphate-buffered saline (PBS), trypsinized, and gently resuspended in V nucleofection solution to a final concentration of 7 × 10^6 cells/100 μl. Next, 5 μg of pCIneo/Mel1c vector was mixed with 100 μl of the COS7 cell suspension, transferred to a […] electroporation cuvette, and nucleofected using program A024 and an Amaxa Nucleofector apparatus. Just after the nucleofection, 500 μl of media supplemented with 20% (v/v) fetal calf serum was added to the cell suspension and cultured in a humidified 37°C, 5% CO2 incubator for 20 minutes. Fourteen million cells were transferred to a T225 flask containing 50 ml of media supplemented with 20% (v/v) fetal calf serum and cultured in a humidified 37°C, 5% CO2 incubator. Two days after transfection, the cells were harvested in PBS, pelleted, and stored at -80°C until use.
as §1
(§5) To obtain stable expression of the receptor for future studies, a preliminary step involving transient expression of the receptor was performed. The Mel1c receptors from the three species were expressed in transiently transfected COS7 cells. A limited number of compounds were tested in order to gain a preliminary perception of the characteristics of Mel1c from these species.

Platypus Mel1C [2] = target: T2, Platypus Mel1C; experiment: 2-[125I]-iodomelatonin competition binding, transiently transfected COS7 cells, platypus Mel1c; conditions: COS7 cells transiently transfected with Mel1c gene; radioligand 2-[125I]-iodomelatonin; two transfections, triplicate
Description: as §4, §1, §5

G. gallus Mel1c receptor = target: T5, G. gallus Mel1c receptor (Gallus gallus, UniProt P49288); experiment: 2-[125I]-iodomelatonin competition binding, transiently transfected COS7 cells, chicken Mel1c; conditions: COS7 cells transiently transfected with Mel1c gene; radioligand 2-[125I]-iodomelatonin; two transfections, triplicate
T5 construct: expressed in transfected cells; host or cells: COS7 (transient nucleofection, pCIneo vector)
T5 sequence (P49288 1-346): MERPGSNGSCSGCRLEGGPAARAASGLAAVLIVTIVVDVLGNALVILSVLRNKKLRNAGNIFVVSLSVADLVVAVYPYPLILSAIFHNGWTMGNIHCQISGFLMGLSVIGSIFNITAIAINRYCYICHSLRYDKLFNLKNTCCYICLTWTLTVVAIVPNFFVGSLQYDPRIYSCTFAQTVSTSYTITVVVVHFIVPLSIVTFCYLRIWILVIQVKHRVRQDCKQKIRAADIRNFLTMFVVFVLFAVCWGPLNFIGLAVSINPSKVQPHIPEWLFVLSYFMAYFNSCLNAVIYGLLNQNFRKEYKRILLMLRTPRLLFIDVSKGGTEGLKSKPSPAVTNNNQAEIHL
Description: as §4, §1, §5

[3] = membranes from stably transfected CHO cells, radioligand 2-[125I]-iodomelatonin, read-out: hMT1 (converted)
[4] = membranes from stably transfected CHO cells, radioligand 2-[125I]-iodomelatonin, read-out: hMT2 (converted)
[5] = membranes from stably transfected CHO cells, radioligand 2-[125I]-iodomelatonin

hMT1, sequence (P48039 whole entry): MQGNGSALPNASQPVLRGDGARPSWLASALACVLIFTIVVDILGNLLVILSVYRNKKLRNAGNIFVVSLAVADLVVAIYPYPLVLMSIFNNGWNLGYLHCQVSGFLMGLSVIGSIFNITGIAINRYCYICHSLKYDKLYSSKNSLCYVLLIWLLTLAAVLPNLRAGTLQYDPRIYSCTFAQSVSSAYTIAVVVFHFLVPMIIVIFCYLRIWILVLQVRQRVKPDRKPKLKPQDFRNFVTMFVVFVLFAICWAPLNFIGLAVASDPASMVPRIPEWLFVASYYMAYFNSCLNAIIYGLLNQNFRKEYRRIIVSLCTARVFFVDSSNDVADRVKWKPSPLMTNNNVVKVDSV

Compound | Ki (hMT1; [3]) [nM] | Ki (hMT2; [4]) [nM] | Ki (Platypus Mel1C [1]) [nM] | Ki (Xenopus Mel1C) [nM] | also measured
COc1ccc(CCN(C)CCCC(C#N)(c2cc(OC)c(OC)c(OC)c2)C(C)C)cc1OC (stereo not drawn) [D600, methoxyverapamil] | 100 | > 10000 | 2000 | 2000 | 
COCC(CNC(C)=O)c1cccc2ccc(OC)cc12 (stereo not drawn) [S73893, N-[3-methoxy-2-(7-methoxy-1-naphthyl)propyl]acetamide] | 3.98 | 7.94 | 20 | 39.8 | 
COc1ccc2cccc(CCNC(C)=O)c2c1 [Agomelatin ®, N-(2-(7-methoxynaphthalen-1-yl)ethyl)acetamide] |  |  | 0.398 | 0.794 | Ki (X. laevis Mel1c receptor; read-out: pKi Xenopus laevis (converted)): 0.631 nM; pKi Ornithorhyncus anatinus (Platypus Mel1C [2]): 9.6
O=C(NCCc1cccc2ccccc12)C1CCC1 [S20928, (N-[2-(1-naphthyl)ethyl]cyclobutanecarboxamide)] | 79.4 | 79.4 | 794 | 1260 | 
COc1ccc2[nH]c(-c3cccc4ccccc34)c(CCNC(=O)CI)c2n1 [S70254] |  |  |  |  | hMT1 (hMT1; [5]): 7.0; pKi Xenopus laevis (X. laevis Mel1c receptor): 6.8; pKi Gallus gallus (G. gallus Mel1c receptor): 6.6; hMT2 (hMT2; [5]): 9.0; pKi Ornithorhyncus anatinus (Platypus Mel1C [2]): 6.6; pKi (Xenopus Mel1C): 6.3
(S)-N-(2-(1,6,7,8-tetrahydro-2H-indeno-(5,4)furan-8-yl)ethyl)propionamide [Ramelteon ®] |  |  |  |  | hMT1 (hMT1; [5]): 10.1; pKi Xenopus laevis (X. laevis Mel1c receptor): 10.1; pKi Gallus gallus (G. gallus Mel1c receptor): 9.8; pKi Ornithorhyncus anatinus (Platypus Mel1C [2]): 10.1; Platypus Mel1C (Platypus Mel1C [1]): 9.9; Xenopus Mel1C (Xenopus Mel1C): 9.9
COc1ccc2[nH]cc(CCNC(C)=O)c2c1I [4-Iodomelatonin, N-[2-(4-iodo-5-methoxy-1H-indol-3-yl)ethyl]acetamide] | 15.8 | 12.6 | 100 | 251 | 
2-(2-[(2-iodo-4,5-dimethoxyphenyl)methyl]-4,5-dimethoxy phenyl [DIV880] |  |  |  |  | hMT1 (hMT1; [5]): 6.1; hMT2 (hMT2; [5]): 8.0; pKi (Platypus Mel1C [1]): 6.2; pKi (Xenopus Mel1C): 5.9
COc1ccc2[nH]cc(CCNC(=O)CI)c2c1 [SD6, N-[2-(5-methoxy-1H-indol-3-yl)ethyl]iodoacetamide] |  |  | 0.398 | 0.501 | 
COc1ccc2ncn(CCNC(C)=O)c2c1 [S21278, N-[2-(6-methoxybenzimidazol-1-yl)ethyl]acetamide] | 631 | 631 | 2000 | 1580 | 
COc1ccc2[nH]c(I)c(CCNC(C)=O)c2c1 [2-Iodomelatonin, 2-iodomelatonin] |  |  |  |  | pKi Xenopus laevis (X. laevis Mel1c receptor): 10.0; pKi Gallus gallus (G. gallus Mel1c receptor): 9.8; pKi Ornithorhyncus anatinus (Platypus Mel1C [2]): 10.2
COc1cc2c(CCNC(C)=O)c(I)[nH]c2cc1[N+](=O)[O-] [S27128, N-[2-(2-iodo-5-methoxy-6-nitro-1H-indol-3-yl)ethyl]acetamide] | 1.26 |  | 1 | 2.51 | 
COc1cc(I)c2[nH]cc(CCNC(C)=O)c2c1 [7-Iodomelatonin] |  |  |  |  | hMT1 (hMT1): 7.3; hMT2 (hMT2): 7.3; pKi (Platypus Mel1C [1]): 7.5; pKi (Xenopus Mel1C): 7.3
COc1cc2c(CCNC(C)=O)c[nH]c2cc1I [6-Iodomelatonin, N-[2-(6-iodo-5-methoxy-1H-indol-3-yl)ethyl]acetamide] | 1.58 | 2.51 | 3.98 | 7.94 | 
COc1ccc2cccc(C(CO)CNC(=O)CF)c2c1 (stereo not drawn) [S75436, 2-fluoro-N-[3-hydroxy-2-(7-methoxy-1-naphthyl)propyl]acetamide] |  |  | 6.31 | 15.8 | Ki (hMT1): 12.6 nM; Ki (hMT2): 1.26 nM
